Format in all cases: cell-based
The target of test [1] is hMC4r (Homo sapiens, UniProt P32245). Kind of test: Alternative assay for agonist activity (intracellular cAMP), HEK-293 cells, recombinant MC4r. The arrangement: expressed in transfected cells; host or cells: HEK-293. The note with it: for Emax: HEK293, not CEREP, reference NDP-α-MSH, read-out: Emax percent hMC4r (percent of the maximal response obtained with the positive control); for EC50: not CEREP, cAMP HTRF. The procedure:
(§1) Accumulation of intracellular cAMP was examined as a measure of the ability of the peptides to elicit a functional response in either HEK-293 cells that express recombinant MC3r or MC4r or B16-F10 (mouse) and HBL (human) cell lines that express native MC1 r. Confluent cells were detached from culture plates by incubation in enzyme-free cell dissociation buffer. Dispersed cells were suspended in Hank's Balanced Salt Solution containing 10 mM HEPES (pH 7.5), 1 mM MgCl2, 1 mM glutamine, 0.5% albumin and 0.3 mM 3-isobutyl-1-methyl-xanthine (IBMX), a phosphodiesterase inhibitor. The cells were dispensed into 96-well plates at a density of 0.5×10^5 cells per well and pre-incubated for 10 minutes. Cells were exposed for 15 minutes at 37° C. to peptides dissolved in DMSO (final DMSO concentration of 1%) at a concentration range of 0.05-5000 nM in a total assay volume of 200 μL. NDP-α-MSH was used as the reference agonist. cAMP levels were determined by an HTRF® cAMP cell-based assay system from Cisbio Bioassays utilizing cryptate-labeled anti-cAMP and D2-labeled cAMP, with plates read on a Perkin-Elmer Victor plate reader at […]. Data analysis was performed by nonlinear regression analysis with Graph-Pad Prism® software. The maximum efficacies of the test peptides were compared to that achieved by the reference melanocortin agonist NDP-α-MSH.
Background: TR-FRET usually uses a lanthanide donor and a delayed reading to cut background.

Test [2] deals with T1, hMC5r (Homo sapiens, UniProt P33032).
T1 construct: Eurofins CEREP SA
T1 sequence (P33032 whole entry): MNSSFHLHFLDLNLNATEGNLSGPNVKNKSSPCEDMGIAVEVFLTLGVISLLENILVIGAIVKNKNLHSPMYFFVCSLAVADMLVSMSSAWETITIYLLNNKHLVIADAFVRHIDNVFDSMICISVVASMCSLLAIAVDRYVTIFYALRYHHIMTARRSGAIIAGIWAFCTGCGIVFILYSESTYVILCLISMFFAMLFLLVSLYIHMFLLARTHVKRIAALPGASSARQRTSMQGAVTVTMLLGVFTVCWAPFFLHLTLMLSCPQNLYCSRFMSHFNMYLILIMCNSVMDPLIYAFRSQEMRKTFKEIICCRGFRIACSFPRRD
Kind of test: cAMP agonist activity assay performed at CEREP (HTRF), MC5. The following applies: determined by CEREP, CHO-K1 cells; for EC50: cAMP HTRF; for Emax: control Alpha-MSH, read-out: Emax percent hMC5r* (percent of the maximal response obtained with the positive control). As for the experimental part:
Evaluation of the agonist activity of compounds at the melanocortin receptors was determined by measuring their effects on cAMP production using the HTRF detection method at CEREP (Eurofins CEREP SA, Celle-Lévescault, France). The cells were suspended in HBSS buffer (Invitrogen) complemented with 20 mM HEPES (pH 7.4) and 500 μM IBMX, then distributed in microplates and incubated in the presence of HBSS (basal control), the test compound or the reference agonist. Incubation time, temperature, cell number, reference agonist and cell line information are included in the Table 1 below. For stimulated control measurement, separate assay wells contain reference compound. Following incubation, the cells are lysed and the fluorescence acceptor (D2-labeled cAMP) and fluorescence donor (anti-cAMP antibody labeled with europium cryptate) were added. After 60 minutes at room temperature, the fluorescence transfer was measured at excitation wavelength 337 nm and emission wavelengths 620 and 665 nm using a microplate reader (Envision, Perkin Elmer). The cAMP concentration was determined by dividing the signal measured at 665 nm by that measured at 620 nm (ratio).
The results are expressed as a percent of the control response to 1 μM of the reference. The standard reference agonist is tested in each experiment at several concentrations to generate a concentration-response curve from which its EC50 value is calculated.

Test [3] deals with hMC3r (Homo sapiens, UniProt P41968). Kind of test: Alternative assay for agonist activity (intracellular cAMP), HEK-293 cells, recombinant MC3r. Further details: expressed in transfected cells; host or cells: HEK-293. The note with it: for Emax: HEK293, not CEREP, reference NDP-α-MSH, read-out: Emax percent hMC3r (percent of the maximal response obtained with the positive control); for EC50: not CEREP, cAMP HTRF. The procedure: as §1
Sequence of hMC3r (P41968 whole entry): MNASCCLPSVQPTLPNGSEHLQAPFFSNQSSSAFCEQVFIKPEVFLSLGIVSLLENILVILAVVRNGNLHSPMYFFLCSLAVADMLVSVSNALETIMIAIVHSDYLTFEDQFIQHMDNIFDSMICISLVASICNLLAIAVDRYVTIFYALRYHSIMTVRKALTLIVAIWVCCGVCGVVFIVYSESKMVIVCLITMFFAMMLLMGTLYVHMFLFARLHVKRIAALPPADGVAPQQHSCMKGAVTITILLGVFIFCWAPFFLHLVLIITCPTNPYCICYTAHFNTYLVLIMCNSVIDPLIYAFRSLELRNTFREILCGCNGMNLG

For test [4], the target named is mMC1r (Mus musculus, UniProt Q01727). Nature of the test: Alternative assay for agonist activity (intracellular cAMP), B16-F10 cells, native MC1r. The following applies: not CEREP; for EC50: cAMP HTRF; for Emax: reference NDP-α-MSH, read-out: Emax percent mMC1r (percent of the maximal response obtained with the positive control). Further details: B16-F10 (mouse) and HBL (human) cell lines that express native MC1 r; endogenous in cells; host or cells: B16-F10 mouse melanoma cells. As for the experimental part:
as §1

A word on the Emax: it is the size of the effect at its maximum, as opposed to the concentration needed. In general, EC50 refers to the concentration that produces a half-maximal response.

Where a SMILES comes first, the peptide text is derived from it. Bridges are numbered along the chain shown (N, C = ends). [ ]: non-standard residue; d: D form. The star is where a group is joined. ξ: configuration not given here. d1Nal = N[C@H](Cc1cccc2ccccc12)C(=O)O; Nle = CCCC[C@H](N)C(=O)O; Orn = NCCC[C@H](N)C(=O)O; Dab = NCC[C@H](N)C(=O)O; ξHyp = O=C(O)C1CC(O)CN1; Dap = NC[C@H](N)C(=O)O; Ahx = NCCCCCC(=O)O; Bn = c1ccc(C*)cc1; GABA = NCCCC(=O)O; βAla = NCCC(=O)O Some results are limits rather than exact numbers.

Sequence of mMC1r (Q01727 whole entry): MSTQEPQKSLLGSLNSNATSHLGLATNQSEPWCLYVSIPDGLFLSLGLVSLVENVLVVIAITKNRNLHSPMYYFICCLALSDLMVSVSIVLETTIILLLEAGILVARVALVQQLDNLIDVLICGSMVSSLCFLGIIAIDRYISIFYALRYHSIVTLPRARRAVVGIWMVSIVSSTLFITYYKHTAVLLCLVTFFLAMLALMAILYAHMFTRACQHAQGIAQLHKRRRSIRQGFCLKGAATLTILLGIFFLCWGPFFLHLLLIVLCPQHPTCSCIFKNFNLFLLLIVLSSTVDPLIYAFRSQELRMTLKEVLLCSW
Sequence of hMC4r (P32245 whole entry): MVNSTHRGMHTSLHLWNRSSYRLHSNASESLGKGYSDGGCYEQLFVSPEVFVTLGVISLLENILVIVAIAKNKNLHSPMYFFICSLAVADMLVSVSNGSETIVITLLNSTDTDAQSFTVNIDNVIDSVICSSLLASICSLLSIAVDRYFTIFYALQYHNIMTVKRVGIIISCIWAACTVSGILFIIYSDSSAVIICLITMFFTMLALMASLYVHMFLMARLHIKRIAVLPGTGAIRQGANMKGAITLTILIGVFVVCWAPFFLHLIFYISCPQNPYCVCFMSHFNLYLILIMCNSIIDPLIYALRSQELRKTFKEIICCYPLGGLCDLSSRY

With `CCCC[C@H](NC(C)=O)C(=O)N[C@H]1CCCCNC(=O)CCNC(=O)[C@H](Cc2c[nH]c3ccccc23)NC(=O)[C@H](CCCNC(=N)N)NC(=O)[C@@H](Cc2cccc3ccccc23)NC(=O)C2CC(OCc3ccccc3)CN2C1=O` (stereo partly shown) [Peptide 2] (Ac-[Nle]K[ξHyp](Bn)[d1Nal]RW[βAla]; lactam 2-C), the Emax in test [1] came to 33%; in test [2] it was 96%; in test [3], 14%; in test [4] it was 61%. The half-maximal effective concentration (EC50) is 5 nM in test [1], 0.23 nM in test [2], over 10000 nM in test [3] and 2 nM in test [4].

`CCCC[C@H](NC(C)=O)C(=O)N[C@H]1CCCNC(=O)CCNC(=O)[C@H](Cc2c[nH]c3ccccc23)NC(=O)[C@H](CCCNC(=N)N)NC(=O)[C@@H](Cc2cccc3ccccc23)NC(=O)C2CC(OCc3ccccc3)CN2C1=O` (stereo partly shown) [Peptide 3] (Ac-[Nle][Orn][ξHyp](Bn)[d1Nal]RW[βAla]; lactam 2-C): the Emax in test [1] is 31%; in test [2] it was 93%; in test [3] it was 12%; in test [4] it was 67%. Moreover, the EC50 in test [1] is 5 nM; in test [2], 0.2 nM; in test [3], over 10000 nM; in test [4], 2 nM.

Take `CCCC[C@H](NC(C)=O)C(=O)N[C@H]1CCCNC(=O)CNC(=O)[C@H](Cc2c[nH]c3ccccc23)NC(=O)[C@H](CCCNC(=N)N)NC(=O)[C@@H](Cc2cccc3ccccc23)NC(=O)C2CC(OCc3ccccc3)CN2C1=O` (stereo partly shown) [Peptide 4] (Ac-[Nle][Orn][ξHyp](Bn)[d1Nal]RWG; lactam 2-C): the maximal effect (Emax) in test [1] came out at 38%; in test [2], 118%; in test [3], 10%; in test [4] it was 67%. In addition, the EC50 in test [1] is 15 nM; in test [2], 10 nM; in test [3], over 10000 nM; in test [4] it was 26 nM.

Turning to `CCCC[C@H](NC(C)=O)C(=O)N[C@H]1CCNC(=O)CCNC(=O)[C@H](Cc2c[nH]c3ccccc23)NC(=O)[C@H](CCCNC(=N)N)NC(=O)[C@@H](Cc2cccc3ccccc23)NC(=O)C2CC(OCc3ccccc3)CN2C1=O` (stereo partly shown) [Peptide 5] (Ac-[Nle][Dab][ξHyp](Bn)[d1Nal]RW[βAla]; lactam 2-C), the Emax came to 32% in test [1], 77% in test [2], 5% in test [3] and 75% in test [4]. Also, the concentration giving a half-maximal response (EC50) in test [1] was 11 nM; in test [2], 0.74 nM; in test [3] it was over 10000 nM; in test [4], 5 nM.

In the case of `CCCC[C@H](NC(C)=O)C(=O)N[C@H]1CNC(=O)CNC(=O)[C@H](Cc2c[nH]c3ccccc23)NC(=O)[C@H](CCCNC(=N)N)NC(=O)[C@@H](Cc2cccc3ccccc23)NC(=O)C2CC(OCc3ccccc3)CN2C1=O` (stereo partly shown) [Peptide 6] (Ac-[Nle][Dap][ξHyp](Bn)[d1Nal]RWG; lactam 2-C), the values for the Emax in test [1], in test [3] and in test [4] were 36%, 6% and 34%, respectively. The half-maximal effective concentration (EC50) in test [1] was 87 nM; in test [3], over 10000 nM; in test [4], 521 nM.

`CC(=O)N[C@@H](CCCNC(=N)N)C(=O)N[C@H]1CCCNC(=O)CCCNC(=O)[C@H](Cc2c[nH]c3ccccc23)NC(=O)[C@H](CCCNC(=N)N)NC(=O)[C@@H](Cc2ccccc2)NC(=O)[C@H](CC(N)=O)NC1=O` [Peptide 8] (Ac-R[Orn]N[dF]RW[GABA]; lactam 2-C): the maximal response (Emax) in test [1] stood at 101%; in test [2], 41%; in test [3], 75%; in test [4], 74%. Also, the concentration giving a half-maximal response (EC50) in test [1] was 1 nM; in test [2], over 10000 nM; in test [3] it was 20 nM; in test [4] it was 230 nM.

In the case of `CC(=O)N[C@@H](CCCNC(=N)N)C(=O)N[C@H]1CCNC(=O)CCCCNC(=O)[C@H](Cc2c[nH]c3ccccc23)NC(=O)[C@H](CCCNC(=N)N)NC(=O)[C@@H](Cc2ccccc2)NC(=O)[C@H](Cc2c[nH]cn2)NC1=O` [Peptide 9], the Emax in test [1] was 105%; in test [2] it was 32%; in test [3], 104%; in test [4] it was 79%. Also, the EC50 in test [1] is 0.22 nM; in test [2] it was over 10000 nM; in test [3], 0.5 nM; in test [4], 0.9 nM.

As for `CC(=O)N[C@@H](CCCNC(=N)N)C(=O)N[C@H]1CNC(=O)CCCCCNC(=O)[C@H](Cc2c[nH]c3ccccc23)NC(=O)[C@H](CCCNC(=N)N)NC(=O)[C@@H](Cc2ccccc2)NC(=O)[C@H](Cc2c[nH]cn2)NC1=O` [Peptide 11], the Emax in test [1] came out at 99%; in test [2] it was 13%; in test [3] it was 98%; in test [4], 93%. In addition, the EC50 is 0.19 nM in test [1], over 10000 nM in test [2], 7 nM in test [3] and 2 nM in test [4].

For the molecule `CC(=O)N[C@@H](CCCNC(=N)N)C(=O)N[C@H]1CNC(=O)CCCCCNC(=O)[C@H](Cc2c[nH]c3ccccc23)NC(=O)[C@H](CCCNC(=N)N)NC(=O)[C@@H](Cc2ccccc2)NC(=O)[C@H](CC(N)=O)NC1=O` [Peptide 12] (Ac-R[Dap]N[dF]RW[Ahx]; lactam 2-C), the maximum response (Emax) in test [1] is 116%; in test [2], 20%; in test [3], 48%; in test [4] it was 95%. Moreover, the EC50 was 2 nM in test [1], over 10000 nM in test [2], 55 nM in test [3] and 206 nM in test [4].

On to `CC(=O)N[C@@H](CCCNC(=N)N)C(=O)N[C@H]1CCCNC(=O)CCCNC(=O)[C@H](Cc2c[nH]c3ccccc23)NC(=O)[C@H](CCCNC(=N)N)NC(=O)[C@@H](Cc2ccccc2)NC(=O)[C@H](Cc2c[nH]cn2)NC1=O` [Peptide 13], for which the Emax in test [1] worked out at 87%; in test [2], 25%; in test [3], 101%; in test [4], 80%. In addition, the concentration giving a half-maximal response (EC50) was 0.27 nM in test [1], over 10000 nM in test [2], 0.4 nM in test [3] and 1 nM in test [4].

For the molecule `CC(=O)N[C@@H](CCCNC(=N)N)C(=O)N[C@H]1CCCCNC(=O)CCNC(=O)[C@H](Cc2c[nH]c3ccccc23)NC(=O)[C@H](CCCNC(=N)N)NC(=O)[C@@H](Cc2ccccc2)NC(=O)[C@H](Cc2c[nH]cn2)NC1=O` [Peptide 14] (Ac-RKH[dF]RW[βAla]; lactam 2-C), the maximal response (Emax) in test [1] is 83%; in test [2], 22%; in test [3], 106%; in test [4], 111%. In addition, the EC50 was 0.15 nM in test [1], over 10000 nM in test [2], 0.2 nM in test [3] and 0.79 nM in test [4].

Consider `CC(=O)N[C@@H](CCCNC(=N)N)C(=O)N[C@H]1CCCCNC(=O)CCNC(=O)[C@H](Cc2c[nH]c3ccccc23)NC(=O)[C@H](CCCNC(=N)N)NC(=O)[C@@H](Cc2ccccc2)NC(=O)[C@H](CC(N)=O)NC1=O` [Peptide 15] (Ac-RKN[dF]RW[βAla]; lactam 2-C), for which the Emax turned out to be 94% in test [1], 44% in test [2], 90% in test [3] and 102% in test [4]. Moreover, the 50% effective concentration (EC50) in test [1] turned out to be 0.3 nM; in test [2] it was 140 nM; in test [3] it was 2 nM; in test [4], 140 nM.

These data come from US20220363719A1, “Reverse Amide-Linked Melanocortin Receptor-Specific Cyclic Peptides” (Palatin Technologies, Inc., priority 2020, published 2022).
